ChEMBL document CHEMBL5308541, “MAIP: An Open-Source Tool to Enrich High-Throughput Screening Output and Identify Novel, Druglike Molecules with Antimalarial Activity” (ACS Med Chem Lett, 2023)
Values joined by “and” are separate entries in the source; they are usually repeats but may differ in a detail not shown here. Identical values can stand only once.

How the values were obtained:
HepG2 = assay: (§1) Re-testing in dose-response curve in HepG2 cytotoxicity assay, at 72h; type: toxicity, cell-based, Homo sapiens; set-up: timepoint 72 hour; conditions: hepg2
[1] = as §1; type: toxicity, cell-based, Homo sapiens; set-up: timepoint 72 hour; conditions: human, HepG2 cells
Plasmodium falciparum [2] = assay: Hit confirmation in dose-response curve in NF54 nanoGlo assay, at 12h; type: functional, organism-based, Erythrocyte; set-up: timepoint 12 hour; conditions: Plasmodium falciparum, NF54, Erythrocyte, 12 h
Plasmodium falciparum [3] = assay: Re-testing in dose-response curve in Dd2 pLDH assay, at 72h; type: functional, organism-based, Erythrocyte; set-up: timepoint 72 hour
Plasmodium falciparum [4] = assay: Hit confirmation in dose-response curve in Dd2 pLDH assay, at 72h; type: functional, organism-based, Erythrocyte; set-up: timepoint 72 hour; conditions: Plasmodium falciparum, Dd2, Erythrocyte, 72 h
[5] = Hit confirmation in dose-response curve in HepG2 cytotoxicity assay, at 72h; type: toxicity, cell-based, Homo sapiens; set-up: timepoint 72 hour; conditions: human, HepG2 cells
Plasmodium falciparum [6] = assay: Hit confirmation in dose-response curve in NF54 pLDH assay, at 72h; type: functional, organism-based, Erythrocyte; set-up: timepoint 72 hour; conditions: Plasmodium falciparum, NF54, Erythrocyte, 72 h
Plasmodium falciparum [7] = assay: Hit confirmation in dose-response curve in NF54 nanoGlo assay, at 72h; type: functional, organism-based, Erythrocyte; set-up: timepoint 72 hour; conditions: Plasmodium falciparum, NF54, Erythrocyte, 72 h
Plasmodium falciparum [8] = assay: Re-testing in dose-response curve in 3D7 pLDH assay, at 72h; type: functional, organism-based, Erythrocyte; set-up: timepoint 72 hour
[9] = Plasmodium falciparum, Dd2, Erythrocyte, 72 h
[10] = Plasmodium falciparum, 3D7, Erythrocyte, 72 h

Compound	IC50 (HepG2)	IC50 at 72 h [1] [nM]	IC50 (Plasmodium falciparum [2]) [nM]	IC50 (Plasmodium falciparum [3]; [9]) [nM]	IC50 (Plasmodium falciparum [3]; erythrocyte)	IC50 (Plasmodium falciparum [4]) [nM]	IC50 at 72 h [5] [nM]	IC50 (Plasmodium falciparum [6]) [nM]	IC50 (Plasmodium falciparum [7]) [nM]	IC50 (Plasmodium falciparum [8]; [10]) [nM]	IC50 (Plasmodium falciparum [8]; erythrocyte)
Cc1ccc(-c2cc(C(=O)NC3CCN(C4CCN(C)CC4)CC3)n[nH]2)cc1C	7030 nM	5930	1550	1190	1230 nM	955	7760	1380	955	621	597 nM
Cc1cnccc1N1CCCN(Cc2ccccc2OCCN2CCN(C)CC2)CC1			2450			1230	> 10000	1200	1410	680	750 nM and 903 nM
CN(C)C1CCN(CCN[C@H]2CCc3ccc(F)cc32)CC1		> 25000	> 10000			708	> 10000	1320	812	> 8330	14800 nM and 12700 nM and 15900 nM
CC1(N2CCC2)CCC(NC[C@H]2CCN(Cc3ccccc3)C2)CC1 (some centres not stated)			9120	1580	1780 nM and 1600 nM	1820	> 10000	2630	3240		1630 nM and 618 nM and 631 nM
Fc1ccc(-n2cc(CNCCC3CCN(c4ccncc4)CC3)cn2)cc1	5840 nM	5110	3550			1290	> 10000	1740	1580	391	~385 nM
CN1CCN(CCCCNC2CC3CCC(C2)N3Cc2ccccc2)CC1 (configuration not stated)	22800 nM and > 8330 nM		> 10000			1830	> 10000	3020	3020		1080 nM
COc1ccc(-c2cncc(C(=O)NCC3CCN(CCN(C)C)CC3)c2)cc1			2950	2300	3110 nM	1380	> 10000	1380	1700		
Cc1cnccc1NCCNCc1ccc(OC(C)C)c(Cl)c1	6940 nM	6650	9550			977	> 10000	1550	1050	434	501 nM
O=C(NC1CCN(CCOc2ccc(Cl)cc2)CC1)c1c[nH]c2ccncc2c1=O			3160			1450	> 10000	1410	1120		606 nM and 883 nM
Brc1ccc2[nH]c3c(c2c1)CCCC3NC1CCc2[nH]cnc2C1 (configuration not stated)	4230 nM	4100	1740			1700	> 10000	2340	1350	~3040	3400 nM
Cc1c(CN2CCC(O)(Cn3ccnc3)CC2)[nH]c2c(Cl)cccc12	20300 nM		2630				> 10000	1950	1700		1650 nM and 1320 nM and 1380 nM
Cc1ccc(-c2cccc3c(C(=O)NCCCN4CCC(N5CCCCC5)CC4)cc(C)nc23)cc1	3450 nM	4110	1410			1170	5010	1200	1200	478	~748 nM
c1ccc(CNc2ccc(-c3noc(C45CCCN(CCC4)C5)n3)cn2)cc1	20100 nM	20400	3240			1990	> 10000	2630	2090	~9410	9780 nM
CCN1C[C@H](Nc2nc(C)nc3sccc23)[C@@H](OC)C1		> 25000	1290			741	> 10000	1000	933	> 25000	
COc1ccc2c(O)c(Br)c(C)nc2c1	21900 nM	21600	> 10000			871	> 10000	1480	759	82.9	90.8 nM
Clc1ccc2[nH]c3c(c2c1)CCCC3NC1CCN(C2CCOC2)CC1 (configuration not stated)			3800			2630	10000	2750	1820		
c1ccc(-c2ccnc(C3CCN(CC45CNCC4C5)CC3)n2)cc1 (configuration not stated)			2880		1590 nM	1860	> 10000	1910	1620	714	859 nM
Oc1cccc2c1CCC[C@@H]2NCc1ccc2occc2c1			4570			8510	> 10000	9330	4070		
CN1CCN(CCOc2ccccc2CN(C)Cc2cc3cc(F)ccc3[nH]2)CC1			6920			5620	10200	6170	4070		
c1ccc2c(CNCCC3CCN(c4ccncc4)CC3)csc2c1	5070 nM	4250	7410			1450	12300	1820	1860	449	418 nM
COc1ccc(CCNCc2ccc3[nH]cnc3c2)c(Cl)c1			> 10000			3470	> 10000	4470	3020		
COCCN1CC[C@H](CN(C)c2ccnc3cc(Cl)ccc23)C1			1820			1450	> 10000	1510	1380		
COc1ccc2nc3cc(Cl)ccc3c(O)c2c1			> 10000			2400	> 10000	1410	912		
Cc1cc(N2CCC(N(C)Cc3cc(-c4ccccc4)n[nH]3)CC2)nc(N)n1			> 10000			3720	> 10000	4470	3240		
CCN(Cc1[nH]c2ccc(Cl)cc2c1C)CC1CCN(C2CCN(C)CC2)CC1			3090			1620	> 10000	1740	1510		
COc1ccc(OC2CCN(C3CCCC3)CC2)c(C(=O)NCc2cccc3[nH]ccc23)c1			> 10000			6170	> 10000	5370	4470		
CN1CCC(Oc2ccc(NC(=O)c3cn4ccnc4s3)cn2)CC1	18700 nM	> 25000	6920			933	> 10000	1580	1290	2130	2340 nM and 1390 nM
Cc1cc(N2CCC(NC3CCCC3Cc3ccc(F)cc3)CC2)nc(N)n1 (configuration not stated)			3020			1100	4680	1100	912		
